Measured values: US8063048B2, “Acetylenyl-pyrazolo-pyrimidine derivatives” (Hoffmann-La Roche Inc., priority 2005, dated 2011)

Row | Compound | melting point [°C]
1 | O=S(=O)(NCCO)c1ccc(C#Cc2cnn3c(C(F)(F)F)cc(-c4ccc(C(F)(F)F)cc4)nc23)cc1 [Example 125, N-(2-Hydroxy-ethyl)-4-[7-trifluoromethyl-5-(4-trifluoromethyl-phenyl)-pyrazolo[1,5-a]pyrimidin-3-ylethynyl]-benzenesulfonamide] | 206 to 208
2 | CC(C)(CO)NS(=O)(=O)c1cncc(C#Cc2cnn3c(C(F)(F)F)cc(-c4ccc(C(F)(F)F)cc4)nc23)c1 [Example 11, 5-[7-Trifluoromethyl-5-(4-trifluoromethyl-phenyl)-pyrazolo[1,5-a]pyrimidin-3-ylethynyl]-pyridine-3-sulfonic acid (2-hydroxy-1,1-dimethyl-ethyl)-amide] | 226 to 227
3 | CC(CO)(CO)NS(=O)(=O)c1cncc(C#Cc2cnn3c(C(F)F)cc(-c4ccc(C(F)(F)F)cc4)nc23)c1 [Example 26, 5-[7-Difluoromethyl-5-(4-trifluoromethyl-phenyl)-pyrazolo[1,5-a]pyrimidin-3-ylethynyl]-pyridine-3-sulfonic acid (2-hydroxy-1-hydroxymethyl-1-methyl-ethyl)-amide] | 204 to 206
4 | NS(=O)(=O)c1cc(C#Cc2cnn3c(C(F)F)cc(-c4cccc(C(F)(F)F)c4)nc23)c(F)cc1F [Example 166, 5-[7-Difluoromethyl-5-(3-trifluoromethyl-phenyl)-pyrazolo[1,5-a]pyrimidin-3-ylethynyl]-2,4-difluoro-benzenesulfonamide] | 277
5 | O=S(=O)(O)c1cncc(C#Cc2cnn3c(C(F)(F)F)cc(-c4ccc(C(F)(F)F)cc4)nc23)c1 [Example 37, 5-[7-Trifluoromethyl-5-(4-trifluoromethyl-phenyl)-pyrazolo[1,5-a]pyrimidin-3-ylethynyl]-pyridine-3-sulfonic acid] | > 288
6 | NS(=O)(=O)c1cnc(C#Cc2cnn3c(C(F)(F)F)cc(-c4cccc(C(F)(F)F)c4)nc23)s1 [Example 105, 2-[7-Trifluoromethyl-5-(3-trifluoromethyl-phenyl)-pyrazolo[1,5-a]pyrimidin-3-ylethynyl]-thiazole-5-sulfonic acid amide] | 251
7 | CN(C)CCNS(=O)(=O)c1ccc(C#Cc2ncn3c(C(F)(F)F)cc(-c4ccc(C(F)(F)F)cc4)nc23)s1 [Example 267, 5-[4-Trifluoromethyl-2-(4-trifluoromethyl-phenyl)-imidazo[1,5-a]pyrimidin-8-ylethynyl]-thiophene-2-sulfonic acid (2-dimethylamino-ethyl)-amide] | 178
8 | CC(C)(CO)NS(=O)(=O)c1cncc(C#Cc2cnn3c(C4CC4)cc(-c4ccc(Cl)cc4)nc23)c1 [Example 67, 5-[5-(4-Chloro-phenyl)-7-cyclopropyl-pyrazolo[1,5-a]pyrimidin-3-ylethynyl]-pyridine-3-sulfonic acid (2-hydroxy-1,1-dimethyl-ethyl)-amide] | 230 to 231
9 | O=S(=O)(c1ccc(C#Cc2cnn3c(C(F)(F)F)cc(-c4ccc(C(F)(F)F)cc4)nc23)cc1)N1CCOCC1 [Example 122, 3-[4-(Morpholine-4-sulfonyl)-phenylethynyl]-7-trifluoromethyl-5-(4-trifluoromethyl-phenyl)-pyrazolo[1,5-a]pyrimidine] | 229 to 231
10 | Nc1ccc(C#Cc2cnc3ccc(-c4ccc(C(F)(F)F)cc4)cn23)cn1 [Example 237, 5-[6-(4-Trifluoromethyl-phenyl)-imidazo[1,2-a]pyridin-3-ylethynyl]-pyridin-2-ylamine] | 241 to 244
11 | O=S(=O)(c1cncc(C#Cc2cnn3c(C(F)(F)F)cc(-c4ccc(C(F)(F)F)cc4)nc23)c1)N(CCO)CCO [Example 13, 5-[7-Trifluoromethyl-5-(4-trifluoromethyl-phenyl)-pyrazolo[1,5-a]pyrimidin-3-ylethynyl]-pyridine-3-sulfonic acid bis-(2-hydroxy-ethyl)-amide] | 173 to 178
12 | Nc1ncc(C#Cc2cnc3c(F)cc(-c4ccc(C(F)(F)F)cc4)cn23)cn1 [Example 240, 5-[8-Fluoro-6-(4-trifluoromethyl-phenyl)-imidazo[1,2-a]pyridin-3-ylethynyl]-pyrimidin-2-ylamine] | 286
13 | NS(=O)(=O)c1cc(C#Cc2cnn3c(C4CC4)cc(-c4ccc(Cl)c(Cl)c4)nc23)c(F)cc1F [Example 85, 5-[7-Cyclopropyl-5-(3,4-dichloro-phenyl)-pyrazolo[1,5-a]pyrimidin-3-ylethynyl]-2,4-difluoro-benzenesulfonamide] | 280 to 281
14 | COCCNS(=O)(=O)c1ccc(C#Cc2cnn3c(C(F)F)cc(-c4ccc(C(F)(F)F)cc4)nc23)cc1 [Example 139, 4-[7-Difluoromethyl-5-(4-trifluoromethyl-phenyl)-pyrazolo[1,5-a]pyrimidin-3-ylethynyl]-N-(2-methoxy-ethyl)-benzenesulfonamide] | 184 to 186
15 | NS(=O)(=O)c1cccc(C#Cc2cnn3c(C(F)(F)F)cc(-c4ccc(Cl)c(Cl)c4)nc23)c1 [Example 93, 3-[5-(3,4-Dichloro-phenyl)-7-trifluoromethyl-pyrazolo[1,5-a]pyrimidin-3-ylethynyl]-benzenesulfonamide] | 230 to 231
16 | NC(=O)c1cncc(C#Cc2cnn3c(C(F)(F)F)cc(-c4ccc(C(F)(F)F)cc4)nc23)c1 [Example 15, 5-[7-Trifluoromethyl-5-(4-trifluoromethyl-phenyl)-pyrazolo[1,5-a]pyrimidin-3-ylethynyl]-nicotinamide] | 285 to 287

Row | Compound | melting point [°C]
17 | COCCNS(=O)(=O)c1cccc(C#Cc2cnn3c(C(F)F)cc(-c4ccc(C(F)(F)F)cc4)nc23)c1 [Example 146, 3-[7-Difluoromethyl-5-(4-trifluoromethyl-phenyl)-pyrazolo[1,5-a]pyrimidin-3-ylethynyl]-N-(2-methoxy-ethyl)-benzenesulfonamide] | 147 to 148
18 | Cc1nc(N)ccc1C#Cc1cnn2c(C(F)F)cc(-c3ccc(C(F)(F)F)cc3)nc12 [Example 143, 5-[7-Difluoromethyl-5-(4-trifluoromethyl-phenyl)-pyrazolo[1,5-a]pyrimidin-3-ylethynyl]-6-methyl-pyridin-2-ylamine] | 243 to 246
19 | NS(=O)(=O)c1cccc(C#Cc2cnn3c(C4CC4)cc(-c4ccc(Cl)cc4)nc23)c1 [Example 72, 3-[5-(4-Chloro-phenyl)-7-cyclopropyl-pyrazolo[1,5-a]pyrimidin-3-ylethynyl]-benzenesulfonamide] | 236 to 237
20 | Cc1cc(-c2cc(C(F)(F)F)n3ncc(C#Cc4cccc(S(N)(=O)=O)c4)c3n2)ccc1Cl [Example 112, 3-[5-(4-Chloro-3-methyl-phenyl)-7-trifluoromethyl-pyrazolo[1,5-a]pyrimidin-3-ylethynyl]-benzenesulfonamide] | 234
21 | Nc1ccc(C#Cc2cnn3c(C4CC4)cc(-c4ccc(Cl)cc4)nc23)cn1 [Example 294, 5-[5-(4-Chloro-phenyl)-7-cyclopropyl-pyrazolo[1,5-a]pyrimidin-3-ylethynyl]-pyridin-2-ylamine] | 233 to 235
22 | FC(F)(F)c1cc(-c2ccc(Cl)cc2)nc2c(C#Cc3cccnc3)cnn12 [Example 21, 5-(4-Chloro-phenyl)-3-pyridin-3-ylethynyl-7-trifluoromethyl-pyrazolo[1,5-a]pyrimidine] | 214 to 215
23 | Cc1cc(CNS(=O)(=O)c2ccc(C#Cc3cnn4c(C(F)(F)F)cc(-c5ccc(C(F)(F)F)cc5)nc34)s2)cc(C)n1 [Example 283, 5-[7-Trifluoromethyl-5-(4-trifluoromethyl-phenyl)-pyrazolo[1,5-a]pyrimidin-3-ylethynyl]-thiophene-2-sulfonic acid (2,6-dimethyl-pyridin-4-ylmethyl)-amide] | 200
24 | FC(F)(F)c1ccc(-c2cc(C(F)(F)F)n3ncc(C#Cc4ccnc(Cl)n4)c3n2)cc1 [Example 183, 3-(2-Chloro-pyrimidin-4-ylethynyl)-7-trifluoromethyl-5-(4-trifluoromethyl-phenyl)-pyrazolo[1,5-a]pyrimidine] | 192 to 195
25 | Cc1cc(-c2ccc(C(F)(F)F)cc2)cn2c(C#Cc3ccc(S(N)(=O)=O)s3)cnc12 [Example 212, 5-[8-Methyl-6-(4-trifluoromethyl-phenyl)-imidazo[1,2-a]pyridin-3-ylethynyl]-thiophene-2-sulfonic acid amide] | 270
26 | Nc1ncc(C#Cc2cnn3c(C(F)(F)F)cc(-c4ccc(Cl)cc4)nc23)cc1C(F)(F)F [Example 223, 5-[5-(4-Chloro-phenyl)-7-trifluoromethyl-pyrazolo[1,5-a]pyrimidin-3-ylethynyl]-3-trifluoromethyl-pyridin-2-ylamine] | 209
27 | CNC(=O)c1ccc(C#Cc2cnn3c(C4CC4)cc(-c4ccc(Cl)cc4)nc23)cc1 [Example 306, 4-[5-(4-Chloro-phenyl)-7-cyclopropyl-pyrazolo[1,5-a]pyrimidin-3-ylethynyl]-N-methyl-benzamide] | 214 to 216
28 | Cc1cc(-c2ccc(C(F)(F)F)cc2)cn2c(C#Cc3cncc(S(N)(=O)=O)c3)cnc12 [Example 229, 5-[8-Methyl-6-(4-trifluoromethyl-phenyl)-imidazo[1,2-a]pyridin-3-ylethynyl]-pyridine-3-sulfonic acid amide] | 294
29 | Nc1ccc(C#Cc2cnc3c(F)cc(-c4ccc(C(F)(F)F)cc4)cn23)cn1 [Example 239, 5-[8-Fluoro-6-(4-trifluoromethyl-phenyl)-imidazo[1,2-a]pyridin-3-ylethynyl]-pyridin-2-ylamine] | 281 to 282
30 | COc1ccc(C#Cc2cnn3ccc(-c4ccc(Cl)cc4)nc23)cc1S(=O)(=O)NC(C)(C)CO [Example 75, 5-[5-(4-Chloro-phenyl)-pyrazolo[1,5-a]pyrimidin-3-ylethynyl]-N-(2-hydroxy-1,1-dimethyl-ethyl)-2-methoxy-benzenesulfonamide] | 264 to 266
31 | CC(=O)Nc1ccc(C#Cc2cnn3c(C(F)(F)F)cc(-c4ccc(C(F)(F)F)cc4)nc23)cn1 [Example 225, N-{5-[7-Trifluoromethyl-5-(4-trifluoromethyl-phenyl)-pyrazolo[1,5-a]pyrimidin-3-ylethynyl]-pyridin-2-yl}-acetamide] | 266
